Results published in patent US12662479B2 (Foghorn Therapeutics Inc., priority 2020, dated 2026).

Assays:
HiBit-BRM fusion protein = molecular target: T1, HiBit-BRM fusion protein (Homo sapiens, UniProt P51531); experiment: HiBiT-BRM cell-based degradation assay (Nano-Glo HiBiT Lytic Detection, 24 h); details: HeLa cells expressing HiBiT-BRM; for DC50: read-out: BRM HiBit Degradation IC50; for BRM HiBit Degradation Maximum measured: top dose 30 μM
T1 construct: expressed in transfected cells
Outline: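 HeLa cells stably expressing HiBiT-BRM were dosed with compounds (10-point 3-fold dilutions, 30 μM final top dose, duplicate) for 24 h. HiBiT signal was read by lytic LgBiT complementation luminescence. Percent degradation was normalised to DMSO (high control) and 2 μM of a reference BRM/BRG1 degrader (low control).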

[1] = molecular target: T2, HiBit-BRG1 fusion protein (Homo sapiens, UniProt P51532); experiment: HiBiT-BRG1 cell-based degradation assay (Nano-Glo HiBiT Lytic Detection, 24 h); details: HeLa cells expressing HiBit-BRG1 and LgBit; for DC50: read-out: BRG1 HiBit Degradation IC50; for Dmax: HeLa, top dose 30 μM, read-out: BRG1 HiBit Degradation Maximum measured
T2 construct: expressed in transfected cells
Outline: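 Stable HeLa line expressing HiBiT-BRG1 and LgBiT, seeded at 5000 cells/well; luminescence read after lytic Nano-Glo HiBiT reagent and 10 min shaking at RT. % degradation normalised between DMSO (high control) and 2 μM reference BRM/BRG1 degrader (low control).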

T2 sequence (P51532 whole entry, the tested form may be a part): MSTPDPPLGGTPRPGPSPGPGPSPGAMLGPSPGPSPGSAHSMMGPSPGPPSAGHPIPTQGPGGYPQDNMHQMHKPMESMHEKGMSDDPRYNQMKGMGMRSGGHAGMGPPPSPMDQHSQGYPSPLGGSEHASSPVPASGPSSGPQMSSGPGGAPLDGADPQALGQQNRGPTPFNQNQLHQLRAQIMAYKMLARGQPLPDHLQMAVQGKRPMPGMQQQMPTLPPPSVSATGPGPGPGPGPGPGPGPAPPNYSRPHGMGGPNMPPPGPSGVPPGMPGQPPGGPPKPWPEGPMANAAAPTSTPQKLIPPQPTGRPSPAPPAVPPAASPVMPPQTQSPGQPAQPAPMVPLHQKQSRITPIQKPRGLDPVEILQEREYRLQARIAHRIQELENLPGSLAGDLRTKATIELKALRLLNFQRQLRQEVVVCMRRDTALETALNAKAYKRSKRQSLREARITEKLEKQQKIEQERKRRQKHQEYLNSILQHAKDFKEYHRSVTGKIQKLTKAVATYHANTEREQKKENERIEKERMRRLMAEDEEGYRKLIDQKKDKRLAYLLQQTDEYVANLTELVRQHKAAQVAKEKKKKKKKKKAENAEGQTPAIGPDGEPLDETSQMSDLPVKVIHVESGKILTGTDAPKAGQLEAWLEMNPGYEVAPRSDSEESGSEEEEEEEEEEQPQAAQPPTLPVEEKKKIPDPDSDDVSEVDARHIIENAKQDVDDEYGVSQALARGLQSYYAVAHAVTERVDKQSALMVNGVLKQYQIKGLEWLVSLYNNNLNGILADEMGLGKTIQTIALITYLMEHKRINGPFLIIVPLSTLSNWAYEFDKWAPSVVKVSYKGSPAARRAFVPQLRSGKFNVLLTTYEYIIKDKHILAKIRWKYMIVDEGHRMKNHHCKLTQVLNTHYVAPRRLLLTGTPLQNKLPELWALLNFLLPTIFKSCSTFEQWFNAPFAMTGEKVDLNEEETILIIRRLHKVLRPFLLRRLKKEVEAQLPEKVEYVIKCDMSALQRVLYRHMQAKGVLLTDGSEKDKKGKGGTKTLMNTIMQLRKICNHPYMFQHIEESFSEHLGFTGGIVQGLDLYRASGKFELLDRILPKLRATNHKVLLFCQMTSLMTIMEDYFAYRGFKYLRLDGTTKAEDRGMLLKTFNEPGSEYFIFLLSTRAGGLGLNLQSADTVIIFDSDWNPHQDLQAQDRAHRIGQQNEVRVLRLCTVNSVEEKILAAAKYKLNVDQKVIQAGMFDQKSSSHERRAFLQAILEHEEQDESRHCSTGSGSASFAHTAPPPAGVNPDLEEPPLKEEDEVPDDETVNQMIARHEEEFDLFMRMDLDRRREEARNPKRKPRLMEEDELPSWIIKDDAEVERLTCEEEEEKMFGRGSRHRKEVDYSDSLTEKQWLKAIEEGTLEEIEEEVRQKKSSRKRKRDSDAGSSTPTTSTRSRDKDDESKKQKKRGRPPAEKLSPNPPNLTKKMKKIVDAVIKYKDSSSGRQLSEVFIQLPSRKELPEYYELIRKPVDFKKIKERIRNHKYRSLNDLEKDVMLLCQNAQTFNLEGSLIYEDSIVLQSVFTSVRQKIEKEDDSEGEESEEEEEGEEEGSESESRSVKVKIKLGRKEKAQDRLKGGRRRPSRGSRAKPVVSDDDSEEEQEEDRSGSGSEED
T1 sequence (P51531 whole entry, the tested form may be a part): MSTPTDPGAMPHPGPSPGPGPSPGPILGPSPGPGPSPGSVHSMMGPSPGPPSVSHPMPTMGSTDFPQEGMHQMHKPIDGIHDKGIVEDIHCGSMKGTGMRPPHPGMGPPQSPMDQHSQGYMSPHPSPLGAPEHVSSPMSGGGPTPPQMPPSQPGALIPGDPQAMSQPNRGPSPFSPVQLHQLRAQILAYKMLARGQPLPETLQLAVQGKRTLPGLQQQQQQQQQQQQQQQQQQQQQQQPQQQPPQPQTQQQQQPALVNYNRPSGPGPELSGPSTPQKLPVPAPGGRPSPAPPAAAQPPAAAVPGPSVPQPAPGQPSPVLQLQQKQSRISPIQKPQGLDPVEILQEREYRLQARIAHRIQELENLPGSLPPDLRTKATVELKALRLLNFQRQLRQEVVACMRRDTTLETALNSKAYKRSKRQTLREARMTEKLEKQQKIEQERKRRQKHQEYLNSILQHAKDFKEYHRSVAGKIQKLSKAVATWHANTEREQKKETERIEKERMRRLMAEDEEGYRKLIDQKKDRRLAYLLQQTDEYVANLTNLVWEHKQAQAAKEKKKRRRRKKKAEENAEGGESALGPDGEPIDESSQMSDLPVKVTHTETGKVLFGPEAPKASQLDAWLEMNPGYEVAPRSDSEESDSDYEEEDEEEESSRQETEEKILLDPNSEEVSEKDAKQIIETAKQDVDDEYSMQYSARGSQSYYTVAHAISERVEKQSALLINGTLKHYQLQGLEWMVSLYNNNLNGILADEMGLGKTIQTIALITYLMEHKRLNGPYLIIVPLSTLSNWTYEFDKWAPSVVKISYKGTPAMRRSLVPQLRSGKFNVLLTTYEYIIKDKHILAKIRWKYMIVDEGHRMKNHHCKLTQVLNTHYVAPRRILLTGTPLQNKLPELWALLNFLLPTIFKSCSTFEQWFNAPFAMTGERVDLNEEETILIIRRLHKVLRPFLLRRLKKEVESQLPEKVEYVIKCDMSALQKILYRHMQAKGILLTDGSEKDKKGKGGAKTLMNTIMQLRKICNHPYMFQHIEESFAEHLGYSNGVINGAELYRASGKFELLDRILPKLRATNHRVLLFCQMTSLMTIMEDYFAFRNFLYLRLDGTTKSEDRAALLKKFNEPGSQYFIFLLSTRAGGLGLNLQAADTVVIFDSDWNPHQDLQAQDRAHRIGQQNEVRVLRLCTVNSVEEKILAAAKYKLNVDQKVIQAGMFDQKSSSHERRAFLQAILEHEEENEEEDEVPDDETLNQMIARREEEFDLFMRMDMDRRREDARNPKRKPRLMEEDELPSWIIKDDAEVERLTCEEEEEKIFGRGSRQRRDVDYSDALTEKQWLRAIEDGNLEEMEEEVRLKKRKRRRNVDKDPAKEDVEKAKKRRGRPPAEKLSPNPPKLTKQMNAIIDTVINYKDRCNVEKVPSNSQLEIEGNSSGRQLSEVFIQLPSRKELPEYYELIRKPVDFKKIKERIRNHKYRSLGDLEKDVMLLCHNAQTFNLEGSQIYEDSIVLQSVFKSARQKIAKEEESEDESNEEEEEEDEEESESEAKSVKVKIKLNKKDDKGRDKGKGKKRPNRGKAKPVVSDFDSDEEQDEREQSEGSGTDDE

Row | SMILES | DC50 (HiBit-BRM fusion protein) [µM] | BRM HiBit Degradation Maximum measured (HiBit-BRM fusion protein) | DC50 [1] [µM] | Dmax [1] [%]
1 | CS(=O)(=O)n1ccc(C(=O)N[C@@H](COCCCC(=O)NCCNc2ccc3c(c2)C(=O)N(C2CCC(=O)NC2=O)C3=O)C(=O)Nc2nc(-c3ccccc3)cs2)c1 (stereo partly drawn) [Compound 185, N-((2S)-3-(4-((2-((2-(2,6-dioxopiperidin-3-yl)-1,3-dioxoisoindolin-5-yl)amino)ethyl)amino)-4-oxobutoxy)-1-oxo-1-((4-phenylthiazol-2-yl)amino)propan-2-yl)-1-(methylsulfonyl)-1H-pyrrole-3-carboxamide] | > 10 | C (‘C’ = Maximum degradation <50%) | > 10 | < 50
2 | CS(=O)(=O)n1ccc(C(=O)N[C@@H](CCOCCCC(=O)NCCCCCCCCNc2cccc3c2C(=O)N(C2CCC(=O)NC2=O)C3=O)C(=O)Nc2nc(-c3ccccc3)cs2)c1 (stereo partly drawn) [Compound 281, (2S)-4-[3-[(8-[[2-(2,6-dioxopiperidin-3-yl)-1,3-dioxoisoindol-4-yl]amino]octyl)carbamoyl]propoxy]-2-[(1-methanesulfonylpyrrol-3-yl)formamido]-N-(4-phenyl-1,3-thiazol-2-yl)butanamide] | > 10 | C (‘C’ = Maximum degradation <50%) | > 10 | < 50
3 | Cc1ncsc1-c1ccc(CNC(=O)[C@@H]2C[C@@H](O)CN2C(=O)[C@@H](NC(=O)CCCCCCCCC(=O)NCc2cccc(-c3cccc(-c4csc(NC(=O)CNC(=O)c5ccn(S(C)(=O)=O)c5)n4)c3)c2)C(C)(C)C)cc1 [Compound 19, N′-[(1S)-1-[(2S,4R)-4-hydroxy-2-[[4-(4-methylthiazol-5-yl)phenyl]methylcarbamoyl]pyrrolidine-1-carbonyl]-2,2-dimethylpropyl]-N-[[3-[3-[2-[[2-[(1-methylsulfonylpyrrole-3-carbonyl)amino]acetyl]amino]thiazol-4-yl]phenyl]phenyl]methyl]decanediamide] | < 0.1 | A (‘A’ = Maximum degradation >75%) | 0.1 to 1 | > 75
4 | CS(=O)(=O)n1ccc(C(=O)NCC(=O)Nc2nc(-c3cccc(-c4ccnc(C5(C(=O)N6CC(CN7CCN(c8ccc9c(c8)C(=O)N(C8CCC(=O)NC8=O)C9=O)CC7)C6)CC5)c4)c3)cs2)c1 (stereo not drawn) [Compound 156, N-[4-[3-(2-[1-[3-([4-[2-(2,6-dioxopiperidin-3-yl)-1,3-dioxoisoindol-5-yl]piperazin-1-yl]methyl)azetidine-1-carbonyl]cyclopropyl]pyridin-4-yl)phenyl]-1,3-thiazol-2-yl]-2-[(1-methanesulfonylpyrrol-3-yl)formamido]acetamide] | 0.1 to 1 | A (‘A’ = Maximum degradation >75%) | 0.1 to 1 | > 75
5 | Cc1ncsc1-c1ccc(CNC(=O)[C@@H]2C[C@@H](O)CN2C(=O)[C@@H](NC(=O)CCCCCC(=O)NCCOc2cc(-c3cccc(-c4csc(NC(=O)CNC(=O)c5ccn(S(C)(=O)=O)c5)n4)c3)ccn2)C(C)(C)C)cc1 [Compound 85, N1-((S)-1-((2S,4R)-4-hydroxy-2-((4-(4-methylthiazol-5-yl)benzyl)carbamoyl)pyrrolidin-1-yl)-3,3-dimethyl-1-oxobutan-2-yl)-N7-(2-((4-(3-(2-(2-(1-(methylsulfonyl)-1H-pyrrole-3-carboxamido)acetamido)thiazol-4-yl)phenyl)pyridin-2-yl)oxy)ethyl)heptanediamide] | 0.1 to 1 | A (‘A’ = Maximum degradation >75%) | 0.1 to 1 | > 75
6 | CN(CC(=O)NCCCCS(=O)(=O)CCCNc1cccc2c1C(=O)N(C1CCC(=O)NC1=O)C2=O)c1cc(-c2cccc(-c3csc(NC(=O)CNC(=O)c4ccn(S(C)(=O)=O)c4)n3)c2)ccn1 (stereo not drawn) [Compound 29] | > 10 | C (‘C’ = Maximum degradation <50%) | > 10 | < 50
7 | CN(CCNC(=O)c1ccc(COCC(NC(=O)c2ccn(S(C)(=O)=O)c2)C(=O)Nc2nc(-c3ccccc3)cs2)cc1)CCNc1cccc2c1C(=O)N(C1CCC(=O)NC1=O)C2=O [Compound 244, (N-[2-[(2-[[2-(2,6-dioxopiperidin-3-yl)-1,3-dioxoisoindol-4-yl]amino]ethyl)(methyl)amino]ethyl]-4-[[(2S)-2-[(1-methanesulfonylpyrrol-3-yl)formamido]-2-[(4-phenyl-1,3-thiazol-2-yl)carbamoyl]ethoxy]methyl]benzamide] | > 10 | C (‘C’ = Maximum degradation <50%) | > 10 | < 50
8 | CN(CCNC(=O)COc1cccc2c1C(=O)N(C1CCC(=O)NC1=O)C2=O)CCNC(=O)c1ccc(COC[C@H](NC(=O)c2ccn(S(C)(=O)=O)c2)C(=O)Nc2nc(-c3ccccc3)cs2)cc1 (stereo partly drawn) [Compound 175] | > 10 | C (‘C’ = Maximum degradation <50%) | > 10 | < 50
9 | CS(=O)(=O)n1ccc(C(=O)N[C@@H](CCOCCCC(=O)NCCCCS(=O)(=O)CCCNc2cccc3c2C(=O)N(C2CCC(=O)NC2=O)C3=O)C(=O)Nc2nc(-c3ccccc3)cs2)c1 (stereo partly drawn) [Compound 275, (2S)-4-(3-[[4-(3-[[2-(2,6-dioxopiperidin-3-yl)-1,3-dioxoisoindol-4-yl]amino]propanesulfonyl)butyl]carbamoyl]propoxy)-2-[(1-methanesulfonylpyrrol-3-yl)formamido]-N-(4-phenyl-1,3-thiazol-2-yl)butanamide] | > 10 | C (‘C’ = Maximum degradation <50%) | > 10 | < 50
10 | Cc1ncsc1-c1ccc(CNC(=O)[C@@H]2C[C@@H](O)CN2C(=O)[C@@H](NC(=O)COCC(=O)NCCOc2cc(-c3cccc(-c4csc(NC(=O)CNC(=O)c5ccn(S(C)(=O)=O)c5)n4)c3)ccn2)C(C)(C)C)cc1 [Compound 78, N-[2-[[4-[3-[2-[2-[[2-[2-[[(1S)-1-[(2S,4R)-4-hydroxy-2-[[4-(4-methylthiazol-5-yl)phenyl]methylcarbamoyl]pyrrolidine-1-carbonyl]-2,2-dimethyl-propyl]amino]-2-oxo-ethoxy]acetyl]amino]ethoxy]-4-pyridyl]phenyl]thiazol-2-yl]amino]-2-oxo-ethyl]-1-methylsulfonyl-pyrrole-3-carboxamide] | > 10 | C (‘C’ = Maximum degradation <50%) | > 10 | < 50
11 | CS(=O)(=O)n1ccc(C(=O)N[C@@H](CCOCCCC(=O)N2CC(COc3ccc4c(c3)C(=O)N(C3CCC(=O)NC3=O)C4=O)C2)C(=O)Nc2nc(-c3ccccc3)cs2)c1 (stereo partly drawn) [Compound 260, (2S)-4-[4-[3-([[2-(2,6-dioxopiperidin-3-yl)-1,3-dioxoisoindol-5-yl]oxy]methyl)azetidin-1-yl]-4-oxobutoxy]-2-[(1-methanesulfonylpyrrol-3-yl)formamido]-N-(4-phenyl-1,3-thiazol-2-yl)butanamide] | > 10 | C (‘C’ = Maximum degradation <50%) | > 10 | < 50
12 | Cc1ncsc1-c1ccc(CNC(=O)[C@@H]2C[C@@H](O)CN2C(=O)[C@@H](NC(=O)CCCCCCCCCNC(=O)C2(c3cc(-c4cccc(-c5csc(NC(=O)CNC(=O)c6ccn(S(C)(=O)=O)c6)n5)c4)ccn3)CC2)C(C)(C)C)cc1 [Compound 98, N-(2-((4-(3-(2-(1-((10-(((S)-1-((2S,4R)-4-hydroxy-2-((4-(4-methylthiazol-5-yl)benzyl)carbamoyl)pyrrolidin-1-yl)-3,3-dimethyl-1-oxobutan-2-yl)amino)-10-oxodecyl)carbamoyl)cyclopropyl)-pyridin-4-yl)phenyl)thiazol-2-yl)amino)-2-oxoethyl)-1-(methylsulfonyl)-1H-pyrrole-3-carboxamide] | < 0.1 | A (‘A’ = Maximum degradation >75%) | < 0.1 | > 75
13 | CS(=O)(=O)n1ccc(C(=O)N[C@@H](CCOCCCC(=O)N2CCN(CCCC#Cc3ccc4c(c3)C(=O)N(C3CCC(=O)NC3=O)C4=O)CC2)C(=O)Nc2nc(-c3ccccc3)cs2)c1 (stereo partly drawn) [Compound 263, (2S)-4-[4-(4-[5-[2-(2,6-dioxopiperidin-3-yl)-1,3-dioxoisoindol-5-yl]pent-4-yn-1-yl]piperazin-1-yl)-4-oxobutoxy]-2-[(1-methanesulfonylpyrrol-3-yl)formamido]-N-(4-phenyl-1,3-thiazol-2-yl)butanamide; formic acid] | > 10 | C (‘C’ = Maximum degradation <50%) | > 10 | < 50
14 | CS(=O)(=O)n1ccc(C(=O)NCC(=O)Nc2nc(-c3cccc(-c4ccnc(C5(C(=O)NC6CCN(CCOc7ccc8c(c7)C(=O)N(C7CCC(=O)NC7=O)C8=O)CC6)CC5)c4)c3)cs2)c1 (stereo not drawn) [Compound 113] | < 0.1 | A (‘A’ = Maximum degradation >75%) | < 0.1 | > 75
15 | CS(=O)(=O)n1ccc(C(=O)NCC(=O)Nc2nc(-c3cccc(-c4cccc(CNC(=O)CCOCCOCCNc5cccc6c5C(=O)N(C5CCC(=O)NC5=O)C6=O)c4)c3)cs2)c1 (stereo not drawn) [Compound 42, N-(2-((4-(3′-((3-(2-(2-((2-(2,6-dioxopiperidin-3-yl)-1,3-dioxoisoindolin-4-yl)amino)ethoxy)ethoxy)propanamido)-methyl)-[1,1′-biphenyl]-3-yl)thiazol-2-yl)amino)-2-oxoethyl)-1-(methylsulfonyl)-1H-pyrrole-3-carboxamide] | > 10 | C (‘C’ = Maximum degradation <50%) | 0.1 to 1 | 50 to 75
